Measured values as given in patent US20210228523A1, “MODULATORS OF SESTRIN-GATOR2 INTERACTION AND USES THEREOF” (Navitor Pharmaceuticals, Inc., priority 2017, published 2021).

Tested on: mTORC1
Test: Western blot of pS6 in multiple regions of the rat brain
Type: in vivo
Conditions: Example C; NV-5138 160 mg/kg oral; 1 hr post-dose; ad libitum access to food
Experimental: Study Design: Ten (10) male rats weighing between 175 and 200 g were randomized into 2 study groups (n=5/group), following a 5-day acclimation period. Group 1 received a single administration of Veh by oral gavage and group 2 received a single administration of NV-5138 (160 mg/kg prepared in Veh) by oral gavage. One hour following administration, rats were sacrificed by conscious decapitation, plasma was collected for analysis of NV-5138 exposure in addition to the isolation of the PFC, hippocampus, striatum, neocortex and cerebellum by microdissection. Total protein extracts were prepared from the harvested tissues and submitted to WB analysis followed by quantitative analysis of selected mTORC1 substrates.
Formulation of NV-5138 (160 mg/ml): NV-5138 (Navitor, Lot #09) was prepared by dissolving in Veh at a concentration of 160 mg/mL. […]
Western Blot Analysis: Synaptosomes preparations (15 μg of total protein) were loaded and separated on NuPAGE 4-12% Bis-Tris gels and transferred to PVDF membrane (Immobilon-FL PVDF membrane, Millipore) using CAPS Buffer (10 mM 3-(Cyclohexylamino)-1-propanesulfonic acid, 12.5% Ethanol pH=10). […] Signals were quantified using the Odyssey Infrared Imaging System (LI-COR Bioscience). The resulting densitometric readings were used to generate a ratio of phopho-protein to α-tubulin. […]

## CC(C)(C[C@H](N)C(=O)O)C(F)F [NV-5138]
  activation of mTORC1 (pS6) in PFC, striatum, hippocampus, neocortex and cerebellum: significant activation of mTORC1 in most, but not all of the major regions of the brain
